Reference: article PMC7027746 (Clinical Pharmacology in Drug Development, 2019)
Where two headings read alike, the source gives them in different places.

Experiments:
ALK = conditions: in vitro; cited from earlier work
[1] = single 180‐mg oral dose of [14C]‐brigatinib, healthy volunteers; cited from earlier work
CYP2C8 = conditions: human liver microsomes, clinically relevant concentrations; ref data on file; cited from earlier work
[2] = cited from earlier work
[3] = healthy volunteers, cited from earlier work
CYP2B6 = conditions: human liver microsomes, clinically relevant concentrations; ref data on file; cited from earlier work
[4] = system: crizotinib‐naive patients with ALK‐positive NSCLC; conditions: cited from earlier work
[5] = format: in vivo, human; conditions: for CL/F, geometric mean (% CV) / CL/F, mean (SD) / AUC / Cmax: healthy subjects
healthy subjects = assay: Safety and tolerability; format: in vivo, human
CYP2D6 = conditions: human liver microsomes, clinically relevant concentrations; ref data on file; cited from earlier work
[6] = Rifampin DDI arm: single-dose brigatinib plasma PK with and without rifampin; format: in vivo, human; conditions: for half-life / Cmax / AUC: human, plasma
CYP2C9 = conditions: human liver microsomes, clinically relevant concentrations; ref data on file; cited from earlier work
CYP3A expression = conditions: human hepatocytes, clinically relevant concentrations, via activation of the pregnane X receptor; cited from earlier work
CYP2C19 = conditions: human liver microsomes, clinically relevant concentrations; ref data on file; cited from earlier work
CYP1A2 = conditions: human liver microsomes, clinically relevant concentrations; ref data on file; cited from earlier work
[7] = format: in vivo, human; conditions: for CL/F, geometric mean (% CV) / CL/F, mean (SD) / AUC / Cmax: healthy subjects; remark: listed apart in the source
CYP3A4/5 = conditions: human liver microsomes, clinically relevant concentrations; ref data on file; cited from earlier work
[8] = brigatinib 90 mg + gemfibrozil vs brigatinib alone
[9] = brigatinib + gemfibrozil compared with brigatinib alone
[10] = single 90 mg oral brigatinib + gemfibrozil 600 mg BID (test), n = 19
[11] = single 90 mg oral brigatinib alone (reference), n = 19
[12] = human, plasma, po, 90 mg, AUC0‐120, geometric mean (% CV), single 90 mg oral brigatinib alone (reference), n = 20
[13] = human, plasma, po, 90 mg, AUC0‐120, mean (SD), single 90 mg oral brigatinib alone (reference), n = 20
[14] = human, plasma, po, 90 mg, geometric mean (% CV), single 90 mg oral brigatinib alone (reference), n = 20
[15] = brigatinib coadministered with gemfibrozil
[16] = brigatinib 180 mg + rifampin vs brigatinib alone
[17] = brigatinib + rifampin compared with brigatinib alone
[18] = healthy subjects, single 180 mg oral brigatinib + rifampin 600 mg QD (test), n = 19
[19] = healthy subjects, single 180 mg oral brigatinib alone (reference), n = 20
[20] = brigatinib 90 mg + itraconazole vs brigatinib alone
[21] = brigatinib + itraconazole compared with brigatinib alone
[22] = single 90 mg oral brigatinib + itraconazole 200 mg BID (test), n = 11
[23] = single 90 mg oral brigatinib alone (reference), n = 20

In the case of `COc1cc(N2CCC(N3CCNCC3)CC2)ccc1Nc1ncc(Cl)c(Nc2ccccc2P(C)(C)=O)n1` [N‐desmethyl brigatinib], the “ALK inhibition potency, fold lower than brigatinib” value (ALK) is listed as “approximately 3 fold” and the “share of circulating radioactive components” value [1] is listed as 3.5%.
For `COc1cc(N2CCC(N3CCN(C)CC3)CC2)ccc1Nc1ncc(Cl)c(Nc2ccccc2P(C)(C)=O)n1` [brigatinib, Brigatinib], the “inhibition of CYP2C8 activity” value (CYP2C8) is given as “did not inhibit”, the “steady‐state apparent oral clearance (CL/F)” value ([2]; 180 mg once daily in patients with cancer) is given as 12.7 L/h and the “single‐ and repeat‐dose systemic exposures versus dose” value ([2]; patients with cancer, dose range 60‐240 mg once daily) is given as “increased dose‐proportionally”. For the same molecule, the “decrease of peak concentration (Cmax) by a high‐fat meal” value ([3]; compared with fasted‐state administration) was 13%, the “median time to Cmax (tmax)” value ([3]; fasted state) was 2 h and the “median time to Cmax (tmax)” value ([3]; high‐fat meal) was 5 h. The “effect of a high‐fat meal on total systemic exposure” value [3] was “no impact”, the “inhibition of CYP2B6 activity” value (CYP2B6) was “did not inhibit” and the “hazard ratio, progression‐free survival” value ([4]; brigatinib versus crizotinib, P < .001) was 0.49 [95%CI, 0.33‐0.74]. For the same molecule, the “12‐month progression‐free survival” value ([4]; phase 3 trial, crizotinib‐naive patients with ALK‐positive NSCLC) was 67%, the “AUC0‐120, geometric LS mean ratio (90%CI) (test vs reference)” value [5, 8] was 0.85 (0.80‐0.91) and the “CL/F, geometric LS mean ratio (90%CI) (test vs reference)” value (“CL/F, geometric LS mean ratio (90%CI)” below) [5, 8] was 1.13 (1.06‐1.20). For the same molecule, the “reduction in peak concentrations” value [5, 9] was “approximately 40%”, the “reduction of geometric mean AUC0‐inf” value [5, 9] was 12% and the “CL/F, geometric mean (% CV)” value [5, 10] was 15.7 (25.7) L/h. The “CL/F, mean (SD)” value [5, 10] was 16.2 (4.3) L/h, the “CL/F, geometric mean (% CV)” value [5, 11] was 13.1 (33.9) L/h and the “CL/F, mean (SD)” value [5, 11] was 13.8 (4.6) L/h. The half-life ([5]; human, plasma, oral, 90 mg) was 26.5 h, the Tmax ([5]; human, plasma, po, 90 mg) was 2 h and the half-life ([5]; human, plasma, po, 90 mg) was 26.7 h. For the same molecule, the AUC [5, 12] was 6490 ng·h/mL, the AUC [5, 13] was 6840 ng·h/mL and the AUC ([5]; human, plasma, po, 90 mg, AUC0‐inf, geometric mean (% CV), single 90 mg oral brigatinib alone (reference), n = 19) was 6880 ng·h/mL. The AUC ([5]; human, plasma, po, 90 mg, AUC0‐inf, mean (SD), single 90 mg oral brigatinib alone (reference), n = 19) was 7230 ng·h/mL, the Cmax [5, 14] was 348 ng/mL and the AUC ([5]; human, plasma, po, AUC0‐120, geometric mean (% CV), single 90 mg oral brigatinib + gemfibrozil 600 mg BID (test), n = 19) was 5340 ng·h/mL. It also gave an AUC ([5]; human, plasma, po, AUC0‐120, mean (SD), single 90 mg oral brigatinib + gemfibrozil 600 mg BID (test), n = 19) of 5520 ng·h/mL, an AUC ([5]; human, plasma, po, AUC0‐inf, geometric mean (% CV), single 90 mg oral brigatinib + gemfibrozil 600 mg BID (test), n = 19) of 5740 ng·h/mL and an AUC ([5]; human, plasma, po, AUC0‐inf, mean (SD), single 90 mg oral brigatinib + gemfibrozil 600 mg BID (test), n = 19) of 5910 ng·h/mL. For the same molecule, the Cmax ([5]; human, plasma, po, geometric mean (% CV), single 90 mg oral brigatinib + gemfibrozil 600 mg BID (test), n = 19) was 199 ng/mL, the Cmax ([5]; human, plasma, po, mean (SD), single 90 mg oral brigatinib + gemfibrozil 600 mg BID (test), n = 19) was 210 ng/mL and the “Any serious TEAE” value (healthy subjects; Gemfibrozil DDI arm (n = 20)) was 0 n (%). The “Any severe TEAE” value (healthy subjects; Gemfibrozil DDI arm (n = 20)) was 0 n (%), the “On‐study deaths” value (healthy subjects; Gemfibrozil DDI arm (n = 20)) was 0 n (%) and the “Any TEAE” value (healthy subjects; Gemfibrozil DDI arm (n = 20), brigatinib 90 mg alone and with gemfibrozil) was 9 (45) n (%). For the same molecule, the “AE leading to discontinuation” value (healthy subjects; Gemfibrozil DDI arm (n = 20), emesis, treatment period 2) was 1 n (%), the “AE leading to discontinuation” value (healthy subjects; Itraconazole DDI arm (n = 20)) was 0 n (%) and the “Any serious TEAE” value (healthy subjects; Itraconazole DDI arm (n = 20)) was 0 n (%). The “Any severe TEAE” value (healthy subjects; Itraconazole DDI arm (n = 20)) was 0 n (%), the “On‐study deaths” value (healthy subjects; Itraconazole DDI arm (n = 20)) was 0 n (%) and the “Any serious TEAE” value (healthy subjects; Rifampin DDI arm (n = 20)) was 0 n (%). For the same molecule, the “Any severe TEAE” value (healthy subjects; Rifampin DDI arm (n = 20)) was 0 n (%), the “On‐study deaths” value (healthy subjects; Rifampin DDI arm (n = 20)) was 0 n (%) and the “AE leading to discontinuation” value (healthy subjects; Rifampin DDI arm (n = 20), elevated aspartate aminotransferase and alanine aminotransferase, treatment period 2) was 1 n (%). The “TEAE incidence: cough” value (healthy subjects; [15]) was 20%, the “TEAE incidence: throat irritation” value (healthy subjects; [15]) was 10% and the “TEAE incidence: cough” value (healthy subjects; brigatinib coadministered with rifampin) was 10%. The “inhibition of CYP2D6 activity” value (CYP2D6) was “did not inhibit”, the “AUC0‐120, geometric LS mean ratio (90%CI) (test vs reference)” value [6, 16] was 0.20 (0.19‐0.22) and the “CL/F, geometric LS mean ratio (90%CI)” value [6, 16] was 5.11 (4.73‐5.51). The “decrease of geometric mean Cmax” value [6, 17] was 60%, the “reduction of geometric mean AUC0‐inf” value [6, 17] was 80% and the “CL/F, geometric mean (% CV)” value [6, 18] was 59.2 (25.8) L/h. The “CL/F, mean (SD)” value [6, 18] was 61.0 (15.4) L/h, the “tmax, median (range)” value [6, 18] was 2.0 (1.0‐4.0) h and the “CL/F, geometric mean (% CV)” value [6, 19] was 11.5 (34.4) L/h. The “CL/F, mean (SD)” value [6, 19] was 12.2 (4.3) L/h, the half-life ([6]; oral, 180 mg, geometric mean t½, brigatinib 180 mg in the presence of rifampin) was 23.4 h and the Cmax ([6]; po, 180 mg, geometric mean (% CV), healthy subjects, single 180 mg oral brigatinib alone (reference), n = 20) was 826 ng/mL. For the same molecule, the AUC ([6]; po, AUC0‐120, geometric mean (% CV), healthy subjects, single 180 mg oral brigatinib + rifampin 600 mg QD (test), n = 19) was 3020 ng·h/mL, the AUC ([6]; po, AUC0‐120, mean (SD), healthy subjects, single 180 mg oral brigatinib + rifampin 600 mg QD (test), n = 19) was 3110 ng·h/mL and the AUC ([6]; po, AUC0‐inf, geometric mean (% CV), healthy subjects, single 180 mg oral brigatinib + rifampin 600 mg QD (test), n = 19) was 3040 ng·h/mL. The AUC ([6]; po, AUC0‐inf, mean (SD), healthy subjects, single 180 mg oral brigatinib + rifampin 600 mg QD (test), n = 19) was 3140 ng·h/mL, the Cmax ([6]; po, geometric mean (% CV), healthy subjects, single 180 mg oral brigatinib + rifampin 600 mg QD (test), n = 19) was 334 ng/mL and the Cmax ([6]; po, mean (SD), healthy subjects, single 180 mg oral brigatinib + rifampin 600 mg QD (test), n = 19) was 347 ng/mL. The half-life ([6]; po, t½, mean (SD), healthy subjects, single 180 mg oral brigatinib + rifampin 600 mg QD (test), n = 19) was 23.7 h, the “increase in CL/F” value ([6]; in the presence of rifampin) was “approximately 5 fold” and the “administered dose recovered in feces” value [1] was 65%. The “administered dose recovered in urine” value [1] was 25%, the “share of circulating radioactive components” value [1] was 92% and the “inhibition of CYP2C9 activity” value (CYP2C9) was “did not inhibit”. The “induction of CYP3A expression” value (CYP3A expression) was “induced CYP3A expression”, the “inhibition of CYP2C19 activity” value (CYP2C19) was “did not inhibit” and the “inhibition of CYP1A2 activity” value (CYP1A2) was “did not inhibit”. For the same molecule, the “CL/F, geometric LS mean ratio (90%CI)” value [7, 20] was 0.50 (0.45‐0.54), the “Cmax, geometric LS mean ratio (90%CI) (test vs reference)” value [7, 20] was 1.21 (1.13‐1.30) and the “increase of geometric mean AUC0‐120” value [7, 21] was 82%. The “increase of geometric mean AUC0‐inf” value [7, 21] was 101%, the “increase of geometric mean Cmax” value [7, 21] was 21% and the “prolongation in the geometric mean t½” value [7, 21] was roughly 50%. For the same molecule, the “increase of systemic exposure” value ([7]; by itraconazole) was 2 fold, the “CL/F, geometric mean (% CV)” value [7, 22] was 6.67 (35.6) L/h and the “CL/F, mean (SD)” value [7, 22] was 7.05 (2.54) L/h. For the same molecule, the “CL/F, geometric mean (% CV)” value [7, 23] was 14.0 (28.7) L/h, the “CL/F, mean (SD)” value [7, 23] was 14.46 (3.84) L/h and the Tmax ([7]; human, plasma, po, 90 mg) was 2.8 h. It also gave a half-life ([7]; human, plasma, po, 90 mg) of 30.5 h, an AUC [7, 12] of 6140 ng·h/mL and an AUC [7, 13] of 6380 ng·h/mL. The AUC ([7]; human, plasma, po, 90 mg, AUC0‐inf, geometric mean (% CV), single 90 mg oral brigatinib alone (reference), n = 20) was 6450 ng·h/mL, the AUC ([7]; human, plasma, po, 90 mg, AUC0‐inf, mean (SD), single 90 mg oral brigatinib alone (reference), n = 20) was 6710 ng·h/mL and the Cmax [7, 14] was 331 ng/mL. The Cmax ([7]; human, plasma, po, geometric mean (% CV), single 90 mg oral brigatinib + itraconazole 200 mg BID (test), n = 20) was 401 ng/mL, the Cmax ([7]; human, plasma, po, mean (SD), single 90 mg oral brigatinib + itraconazole 200 mg BID (test), n = 20) was 429 ng/mL and the “inhibition of CYP3A4/5 activity” value (CYP3A4/5) was “did not inhibit”.
